In series [1] the test system is Pkd2^+/− murine cell line. Put plainly: Viability of Pkd2^+/− cells. The format is cell-based. The settings on record: 100 nM. As for the experimental part: (§1) Calcium response to triptolide was, thus, shown to be dependent on polycystin-2. The biological response to calcium flux was next assessed in the murine Pkd1^−/− cell line, by adding 100 nM triptolide to the cultured cells and observing cell growth over time. Within the first 24 hours of culture, a minimal number of detached cells was observed. […] In the absence of triptolide, this cell line underwent a population doubling every 48 hours. […] It is possible that additional signaling pathways are activated by triptolide when Pkd1 is expressed. […] Therefore, Applicants assessed whether the inhibition of proliferation observed was due to p21 re-expression upon triptolide treatment.
The Pkd1^−/−(MN24), Pkd2^+/−(3B3) and Pkd2^−/−(2D2) murine cell lines were derived from knockout and transgenic mice as previously reported (Wu, et al., 1998, Cell, 93:177-88; Wu, et al., 2000, Nat. Genet, 24:75-8; Wu, et al., 2002, Hum Mol Genet, 11:1845-54). The PKD2-Rex cell line was made by stable integration of untagged PKD2 under hygromycin selection. Antibodies used included polycystin-2 (Cai, et al. 1999, J Biol Chem, 274:28557-65), cleaved (active) caspase-3 (Cell Signaling Technology) and p21 (BD Biosciences). Triptolide was obtained from Sinobest Inc. (China) and purity was 99% as determined by HPLC. DMSO was used to dissolve triptolide and was then directly added into culture media for all experiments. […]

For another series, the system named is NFκB transactivation. Put plainly: κB-luciferase reporter assay (TNF-α induced). Type of series: cell-based. As for the experimental part: Having established that triptolide induced cell death is dependent upon free calcium concentration, Applicants next determined if this was also a requirement for the inhibition of NFκB transcription. HeLa cells were transiently transfected with the κB-luciferase reporter construct for 8 hours before being washed and then cultured in the presence or absence of calcium containing medium for 16 hours. Triptolide (100 nM) was pre-incubated with cells for 1 hour before addition of 15 ng/ml of TNF-α for 4 hours.
As an additional experiment, transcriptional activity was also assessed by site-directed calcium buffering. HeLa cells were co-transfected with the κB-luciferase plasmid as well as one of the following constructs: GFP empty vector, NES-PV-GFP, or NLS-PV-GFP and proper GFP localization was confirmed. Cells were grown in the presence of calcium for 24 hours before the addition of 100 nM triptolide and 15 ng/ml TNF-α.
NFκB transactivation was examined using the κb-luciferase reporter construct. HeLa cells were transiently transfected and pre-treated with 0-100 nM triptolide for one hour prior to TNF-α addition. Cells were assessed for NFκB driven luciferase expression after an additional five hours of incubation, at which time TNF-α had induced transcriptional activity by approximately 15-fold in control cells. […] The results thus far support a divergence of triptolide-mediated functions: the pathway regulating growth arrest/death is more sensitive to triptolide and calcium than the mechanism leading to transcriptional repression of NFκB.
Based upon Applicants' studies examining the concentration dependent effect of triptolide on the two measured biological endpoints, cell death and transcriptional repression, Applicants wanted to determine how modulating triptolide's structure may also discriminate between the two pathways. For cell viability assays, HeLa cells were incubated with 0, 0.1, 1, or 10 μM of each analog or triptolide for 24 hours and then counted using trypan blue dye exclusion. […] NFκB transcriptional inhibition was measured using the κB-luciferase assay as previously described following 5 hours of incubation with each analog (0-10 μM) and TNF-α addition.
A triple κB promoter-Luciferase reporter construct was a gift of Sankar Ghosh (Yale University). HeLa cells were plated at a density of 2×10^5 in 12 well plates and transfected with 100 ng of the κB-Luciferase plasmid plus Lipofectamine 2000 (Invitrogen) for 24 hours before the addition of 100 nM triptolide for one hour and 15 ng/ml of recombinant (human) TNF-α (Roche) for an additional five hours. The transfection efficiency of HeLa was determined to be 80-90%, and all samples were normalized to protein concentration. Luciferase assays were performed using the Firefly luciferase kit as per manufacturer's protocol (Promega) and results obtained on the Wallac Victor2 1420 Multilabel Counter (Perkin Elmer).

The test system of series [2] is Pkd1^−/− murine kidney epithelial cells. In words: Growth, p21 and active caspase-3 in Pkd1^−/− cells. The format is cell-based. As for the experimental part:
as §1
The Pkd1^−/−(MN24), Pkd2^+/−(3B3) and Pkd2^−/−(2D2) murine cell lines were derived from knockout and transgenic mice as previously reported (Wu, et al., 1998, Cell, 93:177-88; Wu, et al., 2000, Nat. Genet, 24:75-8; Wu, et al., 2002, Hum Mol Genet, 11:1845-54). The PKD2-Rex cell line was made by stable integration of untagged PKD2 under hygromycin selection. Antibodies used included polycystin-2 (Cai, et al. 1999, J Biol Chem, 274:28557-65), cleaved (active) caspase-3 (Cell Signaling Technology) and p21 (BD Biosciences). Triptolide was obtained from Sinobest Inc. (China) and purity was 99% as determined by HPLC. DMSO was used to dissolve triptolide and was then directly added into culture media for all experiments. Triptolide was tritiated by Sib Tech, Inc. (Newington, Conn.) and resuspended in ethanol to a specific activity of 4-6 Ci/mmol. Purity was >95% as confirmed by RP-HPLC on a Hypersil C18 column and by TLC on both C18 and silica gel.
Total cell lysates (0.5% Triton X-100, 50 mM Tris pH 7.4, 150 mM NaCl, […]) were prepared for Western blot analysis and samples were run out by SDS-PAGE as per manufacturers' protocols. Brightfield images of cells were taken using a 10× or 40× objective. Confocal microscopy (40×) was used for immunofluorescence imaging of polycystin-2.

The next series has as its system pregnant C57B1/6 mice. In words: Toxicity dose finding in pregnant mice. Type of series: in vivo. As to conditions: i.p. As for the experimental part:
Triptolide has been previously studied in rodent models of tumor regression (Tengchaisri, et al., 1998, Cancer Lett 133, 169-175; Yang, et al., 2003, Mol Cancer Ther 2, 65-72), but it had not yet been tested in a system utilizing pregnant females. To first establish a potential therapeutic versus lethal concentration of drug delivery, pregnant C57B1/6 mice were treated with incremental concentrations of triptolide between 0.01-0.15 mg/kg/day i.p. injections. Toxicity was assessed as determined by resorption of all embryos or the preponderance of a large percentage of stillborns. With reference to these criteria, triptolide toxicity was determined to be most prominent at concentrations of 0.1 mg/kg/day or greater. […] Another experimental parameter involved the timing of the start of triptolide injections, since polycystin-2 has been implicated in left-right axis formation in the developing embryo at approximately E7.75 (McGrath, et al., 2003, Cell 114, 61-73; Pennekamp, et al., 2002, Curr Biol 12, 938-943). Applicants therefore chose E10.5 as the start of triptolide injections, in order to allow for a normal polycystin-2 mediated patterning event and still leave sufficient time to act on cyst formation during kidney organogenesis.

In another series the test system is adult animal. In words: Tolerability in adult animal. The format is in vivo. From the text: Since ADPKD has no proven therapeutic cure or treatment, Applicants believe it is encouraging as a preliminary step to observe triptolide-mediated growth arrest and attenuation of cyst progression. […] In summary, Applicants have established a novel pathway for triptolide mediated calcium release in a polycystin-2 dependent pathway that can reduce cystic burden in the kidneys of PKD mice. It is hopeful therefore that if fully developed, triptolide would be an ideal candidate for drug therapy as its history as an herbal therapy has already shown it to be well tolerated in humans.

Some results are limits rather than exact numbers.

By inhibition is commonly meant the change of the read-out against control, counted positive when it falls. A low value points to a response near the control.

Take `CC(C)[C@]12O[C@H]1[C@@H]1O[C@]13[C@]1(O[C@H]1C[C@H]1C4=C(CC[C@@]13C)C(=O)OC4)[C@@H]2O` [triptolide, Triptolide]: the cell death result in series [1] was “rapid cell death within 24 hours”. The “TNF-α driven transcriptional activity of NFκB” value in the series with NFκB transactivation (10 nM, 6 hours) is on record as “did not inhibit”; in the series with NFκB transactivation (25 nM, 6 hours), “did not inhibit”. In addition, the “suppression of NFκB transcriptional activity” value in the series with NFκB transactivation (50 nM, 6 hours) came to 20%. This compound came in with an inhibition at 0.1 µM in the series with NFκB transactivation (0.1 μM, 5 hours with TNF-α, analog study) of more than 60%. For the same compound, the “inhibition of NFκB transcriptional activity” value in the series on NFκB transactivation (100 nM, 6 hours, average) is 60%. For the same compound, the NFκB transactivation result in the series on NFκB transactivation (100 nM, GFP vector, NES-PV-GFP or NLS-PV-GFP co-transfected) is reported as “retained the ability to suppress NFκB transactivation in all experimental conditions”. Also, the “TNF-α induced NFκB transactivation” value with NFκB transactivation (100 nM, presence and absence of calcium) is listed as “effectively inhibited”. Moreover, the “NFκB transcriptional activity at higher concentration” value in the series on NFκB transactivation (1 or 10 μM, 5 hours) was “attenuated further”. Further, the “active caspase-3 (western blot)” value in series [2] (100 nM time course) is recorded as “failed to implicate triptolide induced apoptosis”. Further, the “p21 expression (western blot)” value in series [2] (100 nM, 96 hour time course) is given as “upregulated”. The cell growth result in series [2] (100 nM, over 96 hours) was “growth arrested”. The “dose at which toxicity was most prominent (resorption of embryos, stillborns)” value with pregnant C57B1/6 mice was not below 0.1 mg/kg/day. Also, the “dose that did not adversely affect health” value in the series with adult animal was “greater than 0.15 mg/kg/day”.

Values taken from patent US20080188449A1, “Treatment of Conditions Caused By Calcium Abnormalities” (priority 2004, published 2008).
